Laboratory results taken from patent US20100136541A1, “IDENTIFICATION AND VERIFICATION OF METHYLATION MARKER SEQUENCES” (Siemens Healthcare Diagnostics Inc., priority 2003, published 2010).

What was measured:
SCNN1B CpG sites = experiment: Bisulfite sequencing of CpG sites, cell lines treated vs. untreated; format: cell-based, human; parameters: unit not given here
Experimental: (§1) Samples: Paired tumor and adjacent normal tissues from twelve colorectal cancer patients were collected under institutional review board (IRB) approval with patient consent. Tissues were flash frozen in LN2 and stored at −80° C. prior to DNA extraction. All tissues were blinded. Cell lines: A panel of five colorectal cancer cell lines was used. Cells were grown to ˜50% confluence in the appropriate culture medium prior to treatment with 5-aza-2′-deoxycytidine. Optimal concentrations and incubation times (Table 4) were determined by assaying for reduction of p16 promoter methylation using MSP. Cells were harvested, pelleted by centrifugation, and washed twice in Hanks buffered saline solution. Cell pellets were stored at −80° C. Control cells were maintained simultaneously without 5-aza-2′-deoxycytidine treatment. DNA extraction: DNA was purified from tissues and cell lines using the QIAGEN DNeasy® Tissue Kit. Approximately 25-35 mg of each tissue was pulverized under liquid nitrogen before extraction. Elution volume for tissues was 2004. A final volume of […] of cell line DNA was extracted from 15 to 254 of each packed cell pellet (between 10^6-10^7 cells). Purified DNA was stored at −20° C. Bisulfite modification: Modification was performed according to the Frommer method (See Frommer M, et al., PNAS, 89: 1827-1831 (1992).) One μg genomic DNA was diluted into 50 μl with distilled H2O, 5.5 μl of 2M NaOH was added, and the mixture incubated at 37° C. for 10 minutes (to create single stranded DNA). Thirty μl of freshly prepared 10 mM hydroquinone (Sigma) was added to each tube. Five hundred twenty μl of freshly prepared 3M sodium bisulfite (Sigma S-8890), pH 5.0 was then added. Reagents were thoroughly mixed and then covered with mineral oil and incubated at 50° C. for 16 hours. After removing the oil, 1 ml of Wizard DNA Cleanup Resin (Promega A7280) was added to each tube prior to applying the mixture to miniprep column in the DNA Wizard Cleanup kit. The column was washed with 2 ml of 80% isopropanol, and eluted with 50 μl of heated water (60-70° C.). 5.5 μl of 3 M NaOH to was added to each tube, and incubated at room temperature for 5 minutes. Then 1 μl glycogen was added as carrier, 33 μl of 10 M NH4Ac, and 3 volumes of ethanol for DNA precipitation. The pellet was spun down and washed with 70% ethanol, dried and resuspended in 20 μl water. In some instances, the EZ DNA Methylation Kit (Zymo Research) which uses a simplified version of the Frommer method was used. In these cases, 1 μg of genomic DNA was denatured in 0.3M NaOH for 15 minutes at 37° C. followed by incubation at 50° C. for 16 hours in 0.5 mM hydroquinone and a saturated solution of sodium bisulfite at pH 5. Modified DNA was bound to the Zymo column membrane, then desulfonated with 0.3M NaOH for 15 minutes at room temperature. DNA was washed and resuspended with 50 μL 10 mM Tris-HCl-0.1 mM EDTA, pH 7.5 and stored at −20° C. The bisulfite reaction results in conversion of an unmethylated cytosine to uracil. Methylated cytosine remains unchanged after the bisulfite reaction. The resulting bisulfite modified DNA is single stranded. PCR amplification for sequencing: Primers were designed to amplify both methylated and unmethylated fragments of DNA (Table 5). Five μL of modified DNA ( 1/10 of modification reaction) was amplified first in a 254, reaction volume containing 10 mM Tris-HCl pH8.3, 50 mM KCl, 1.5 mM to 2 mM MgCl2, (Applied Biosystems), 0.25 mM each dNTP, 0.5 unit AmpliTaq (Applied Biosystems), and sequencing primers (each at 200 nM). Cycling conditions were 10 minutes at 95° C., 40 cycles of 30 seconds at 95° C., 30 seconds at 54-62° C., 30 seconds at 72° C., subsequently followed by extension for 5 minutes at 72° C.
(§2) Reaction products were purified either by the shrimp-alkaline phosphatase-Exol standard method or on the Qiagen Qiaquick PCR clean-up column and eluted in 30 μL 10 mM Tris-HCl, pH8.5. […]

GPX3 CpG sites = experiment: as above; format: cell-based, human; parameters: unit not given here; details: cell line pool
Experimental: as §1, §2

Nc1ncn([C@H]2C[C@H](O)[C@@H](CO)O2)c(=O)n1 [5-aza-2′-deoxycytidine]
SCNN1B sequencing result (methylation) at CpG site #179 (SCNN1B CpG sites; HT29 treated): 70
SCNN1B sequencing result (methylation) at CpG site #192 (SCNN1B CpG sites; HT29 treated): 90
SCNN1B sequencing result (methylation) at CpG site #203 (SCNN1B CpG sites; HT29 treated): 36
SCNN1B sequencing result (methylation) at CpG site #223 (SCNN1B CpG sites; HT29 treated): 79
SCNN1B sequencing result (methylation) at CpG site #228 (SCNN1B CpG sites; HT29 treated): 74
SCNN1B sequencing result (methylation) at CpG site #230 (SCNN1B CpG sites; HT29 treated): 67
SCNN1B sequencing result (methylation) at CpG site #234 (SCNN1B CpG sites; HT29 treated): 69
SCNN1B sequencing result (methylation) at CpG site #238 (SCNN1B CpG sites; HT29 treated): 75
SCNN1B sequencing result (methylation) at CpG site #245 (SCNN1B CpG sites; HT29 treated): 65
SCNN1B sequencing result (methylation) at CpG site #267 (SCNN1B CpG sites; HT29 treated): 55
SCNN1B sequencing result (methylation) at CpG site #295 (SCNN1B CpG sites; HT29 treated): 26
SCNN1B sequencing result (methylation) at CpG site #179 (SCNN1B CpG sites; LS123 treated): 56
SCNN1B sequencing result (methylation) at CpG site #192 (SCNN1B CpG sites; LS123 treated): 63
SCNN1B sequencing result (methylation) at CpG site #203 (SCNN1B CpG sites; LS123 treated): 42
SCNN1B sequencing result (methylation) at CpG site #223 (SCNN1B CpG sites; LS123 treated): 90
SCNN1B sequencing result (methylation) at CpG site #228 (SCNN1B CpG sites; LS123 treated): 87
SCNN1B sequencing result (methylation) at CpG site #230 (SCNN1B CpG sites; LS123 treated): 82
SCNN1B sequencing result (methylation) at CpG site #234 (SCNN1B CpG sites; LS123 treated): 80
SCNN1B sequencing result (methylation) at CpG site #238 (SCNN1B CpG sites; LS123 treated): 77
SCNN1B sequencing result (methylation) at CpG site #245 (SCNN1B CpG sites; LS123 treated): 81
SCNN1B sequencing result (methylation) at CpG site #267 (SCNN1B CpG sites; LS123 treated): 59
SCNN1B sequencing result (methylation) at CpG site #295 (SCNN1B CpG sites; LS123 treated): 23
SCNN1B sequencing result (methylation) at CpG site #179 (SCNN1B CpG sites; LS174T treated): 7
SCNN1B sequencing result (methylation) at CpG site #192 (SCNN1B CpG sites; LS174T treated): 56
SCNN1B sequencing result (methylation) at CpG site #203 (SCNN1B CpG sites; LS174T treated): 40
SCNN1B sequencing result (methylation) at CpG site #223 (SCNN1B CpG sites; LS174T treated): 75
SCNN1B sequencing result (methylation) at CpG site #228 (SCNN1B CpG sites; LS174T treated): 81
SCNN1B sequencing result (methylation) at CpG site #230 (SCNN1B CpG sites; LS174T treated): 72
SCNN1B sequencing result (methylation) at CpG site #234 (SCNN1B CpG sites; LS174T treated): 70
SCNN1B sequencing result (methylation) at CpG site #238 (SCNN1B CpG sites; LS174T treated): 55
SCNN1B sequencing result (methylation) at CpG site #245 (SCNN1B CpG sites; LS174T treated): 40
SCNN1B sequencing result (methylation) at CpG site #267 (SCNN1B CpG sites; LS174T treated): 47
SCNN1B sequencing result (methylation) at CpG site #295 (SCNN1B CpG sites; LS174T treated): 7
SCNN1B sequencing result (methylation) at CpG site #179 (SCNN1B CpG sites; SW480 treated): 80
SCNN1B sequencing result (methylation) at CpG site #192 (SCNN1B CpG sites; SW480 treated): 44
SCNN1B sequencing result (methylation) at CpG site #203 (SCNN1B CpG sites; SW480 treated): 21
SCNN1B sequencing result (methylation) at CpG site #223 (SCNN1B CpG sites; SW480 treated): 89
SCNN1B sequencing result (methylation) at CpG site #228 (SCNN1B CpG sites; SW480 treated): 83
SCNN1B sequencing result (methylation) at CpG site #230 (SCNN1B CpG sites; SW480 treated): 80
SCNN1B sequencing result (methylation) at CpG site #234 (SCNN1B CpG sites; SW480 treated): 80
SCNN1B sequencing result (methylation) at CpG site #238 (SCNN1B CpG sites; SW480 treated): 87
SCNN1B sequencing result (methylation) at CpG site #245 (SCNN1B CpG sites; SW480 treated): 51
SCNN1B sequencing result (methylation) at CpG site #267 (SCNN1B CpG sites; SW480 treated): 57
SCNN1B sequencing result (methylation) at CpG site #295 (SCNN1B CpG sites; SW480 treated): 69
SCNN1B sequencing result (methylation) at CpG site #179 (SCNN1B CpG sites; SW620 treated): 59
SCNN1B sequencing result (methylation) at CpG site #192 (SCNN1B CpG sites; SW620 treated): 88
SCNN1B sequencing result (methylation) at CpG site #203 (SCNN1B CpG sites; SW620 treated): 30
SCNN1B sequencing result (methylation) at CpG site #223 (SCNN1B CpG sites; SW620 treated): 93
SCNN1B sequencing result (methylation) at CpG site #228 (SCNN1B CpG sites; SW620 treated): 95
SCNN1B sequencing result (methylation) at CpG site #230 (SCNN1B CpG sites; SW620 treated): 94
SCNN1B sequencing result (methylation) at CpG site #234 (SCNN1B CpG sites; SW620 treated): 91
SCNN1B sequencing result (methylation) at CpG site #238 (SCNN1B CpG sites; SW620 treated): 86
SCNN1B sequencing result (methylation) at CpG site #245 (SCNN1B CpG sites; SW620 treated): 26
SCNN1B sequencing result (methylation) at CpG site #267 (SCNN1B CpG sites; SW620 treated): 67
SCNN1B sequencing result (methylation) at CpG site #295 (SCNN1B CpG sites; SW620 treated): 23
Sequencing results for GPX3, CpG site #25 (GPX3 CpG sites): 70
Sequencing results for GPX3, CpG site #27 (GPX3 CpG sites): 100
Sequencing results for GPX3, CpG site #31 (GPX3 CpG sites): 67
Sequencing results for GPX3, CpG site #49 (GPX3 CpG sites): 70
Sequencing results for GPX3, CpG site #56 (GPX3 CpG sites): 98
Sequencing results for GPX3, CpG site #75 (GPX3 CpG sites): 72
Sequencing results for GPX3, CpG site #84 (GPX3 CpG sites): 77
Sequencing results for GPX3, CpG site #86 (GPX3 CpG sites): 74
Sequencing results for GPX3, CpG site #101 (GPX3 CpG sites): 84
Sequencing results for GPX3, CpG site #126 (GPX3 CpG sites): 75
Sequencing results for GPX3, CpG site #129 (GPX3 CpG sites): 80
Sequencing results for GPX3, CpG site #142 (GPX3 CpG sites): 97
Sequencing results for GPX3, CpG site #146 (GPX3 CpG sites): 80
Sequencing results for GPX3, CpG site #167 (GPX3 CpG sites): 89
